We go through 52 sequences from the supplement of paper PMC11208160.
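Also: IS621 bridge recombinase in Escherichia coli cells against a fixed T5 target plasmid.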

A short description of the data set: recombinant UMI read abundance after kanamycin selection (control-corrected) (log10(CPM+1)); higher = more efficient recombination; extreme values may be limits of the assay; sequences stand for … in AGTGCAGAGAAAATCGGCCAGTTTTCTCTGCCTGCAGTCCGCATGCCGTGGGACCCCTTGGGTTCTAACCTGTTGCCTAGATTTATGCAGCGGACTGCCTTTCTCCCAAAGTGATAAACCGG…AGGTTGGTTTCACT; site = the 11-nt donor. In short, it runs like this:
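For the IS621 bridge recombinase, a pooled Escherichia coli screen tested donor and donor-binding-loop pairs. Cells received the pair library together with a target plasmid encoding a fixed target and T7-inducible recombinase, then went onto IPTG (0.07 mM) plus kanamycin or unselected plates in duplicate. After PCR across the donor–target junction and sequencing, recombinant UMI counts were normalized to CPM, averaged, and scaled by control-derived factors. Each value is given as log10(CPM+1).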
“TGAATACCATGGACCGGTTTTCCCGGTAATCCGTATTTGTG (site TGAATACCTCA)”: the “recombinant UMI read abundance (log10)” value turned out to be 0.0076.
With “TGACATTCATGGACCGGTTTTCCCGGTAATCCGTATTTGCT (site TGACATTCTAG)” the figure was 1.97; with “TGACCTCCATGGACCGGTTTTCCCGGTAATCCGTATTTGAA (site TGACCTCCTTT)”, 0.019.
With “TGACTATCATGGACCGGTTTTCCCGGTAATCCGTATTTGTA (site TGACTATCTTA)” the figure was 2.58; with “TGACTCACATGGACCGGTTTTCCCGGTAATCCGTATTTGAC (site TGACTCACTGT)”, 2.68; with “TGAGAGGCATGGACCGGTTTTCCCGGTAATCCGTATTTGTA (site TGAGAGGCTTA)”, 2.3.
The result for “TGAGATACATGGACCGGTTTTCCCGGTAATCCGTATTTGAG (site TGAGATACTCT)” reads 2.26; that for “TGAGGACCATGGACCGGTTTTCCCGGTAATCCGTATTTGCA (site TGAGGACCTTG)”, 0.
With “TGAGTTTCATGGACCGGTTTTCCCGGTAATCCGTATTTGAG (site TGAGTTTCTCT)”, the “recombinant UMI read abundance (log10)” value was determined as 1.89.
On to “TGATAGACATGGACCGGTTTTCCCGGTAATCCGTATTTGGA (site TGATAGACTTC)”, for which the “recombinant UMI read abundance (log10)” value was found to be 0.865.
For “TGATCAACATGGACCGGTTTTCCCGGTAATCCGTATTTGCT (site CGATCATCTAG)”, the “recombinant UMI read abundance (log10)” value came to 0.
The result for “TGATCAACATGGACCGGTTTTCCCGGTAATCCGTATTTGCT (site TGATCAACTAG)” reads 0.879.
The result for “TGATCATCATGGACCGGTTTTCCCGGTAATCCGTATTTGCT (site AGATCATCTAG)” reads 1.56; that for “TGATCATCATGGACCGGTTTTCCCGGTAATCCGTATTTGCT (site CGATCATCTAG)”, 1.63.
With “TGATCATCATGGACCGGTTTTCCCGGTAATCCGTATTTGCT (site GGATCATCTAG)”, the “recombinant UMI read abundance (log10)” value was found to be 1.02.
For “TGATCATCATGGACCGGTTTTCCCGGTAATCCGTATTTGCT (site TGATCATCTAG)”, the “recombinant UMI read abundance (log10)” value worked out at 0.945.
Consider “TGATCCCCATGGACCGGTTTTCCCGGTAATCCGTATTTGTA (site TGATCCCCTTA)”, for which the “recombinant UMI read abundance (log10)” value is 0.674.
Turning to “TGATCCCCATGGACCGGTTTTCCCGGTAATCCGTATTTGTA (site TGCTCCCCTTA)”, the “recombinant UMI read abundance (log10)” value amounted to 0.195.
With “TGATCCCCATGGACCGGTTTTCCCGGTAATCCGTATTTGTA (site TGGTCCCCTTA)” the figure was 0.00213.
With “TGATCCCCATGGACCGGTTTTCCCGGTAATCCGTATTTGTA (site TGTTCCCCTTA)”, the “recombinant UMI read abundance (log10)” value came to 0.28.
The result for “TGATCCGCATGGACCGGTTTTCCCGGTAATCCGTATTTGCC (site TGATCCGCTGG)” reads 1.55; that for “TGCAAACCATGGACCGGTTTTCCCGGTAATCCGTATTTGGG (site TGCAAACCTCC)”, 0.00989.
With “TGCAATCCATGGACCGGTTTTCCCGGTAATCCGTATTTGAA (site AGCAATCCTTT)” the figure was 0.00584.
With “TGCAATCCATGGACCGGTTTTCCCGGTAATCCGTATTTGAA (site CGCAATCCTTT)” the figure was 0.257.
In the case of “TGCAATCCATGGACCGGTTTTCCCGGTAATCCGTATTTGAA (site GGCAATCCTTT)”, the “recombinant UMI read abundance (log10)” value came to 0.0354.
With “TGCAATCCATGGACCGGTTTTCCCGGTAATCCGTATTTGAA (site TGCAATCCTTT)” the figure was 1.16; with “TGCACATCATGGACCGGTTTTCCCGGTAATCCGTATTTGCC (site TGCACATCTGG)”, 0.35; with “TGCACCGCATGGACCGGTTTTCCCGGTAATCCGTATTTGCG (site TACACCGCTCG)”, 0.0133.
“TGCACCGCATGGACCGGTTTTCCCGGTAATCCGTATTTGCG (site TCCACCGCTCG)”: the “recombinant UMI read abundance (log10)” value came out at 0.0173.
With “TGCACCGCATGGACCGGTTTTCCCGGTAATCCGTATTTGCG (site TGCACCGCTCG)” the figure was 0.0216; with “TGCACCGCATGGACCGGTTTTCCCGGTAATCCGTATTTGCG (site TTCACCGCTCG)”, 0.00682; with “TGCAGCACATGGACCGGTTTTCCCGGTAATCCGTATTTGCG (site TGCAGCACTCG)”, 0.686.
The result for “TGCAGTGCATGGACCGGTTTTCCCGGTAATCCGTATTTGTA (site TGCAGTGCTTA)” reads 0.853; that for “TGCATCCCATGGACCGGTTTTCCCGGTAATCCGTATTTGAA (site TGCATCCCTTT)”, 0.335; that for “TGCATTCCATGGACCGGTTTTCCCGGTAATCCGTATTTGTT (site TGCATTCCTAA)”, 0.
Consider “TGCCAGGCATGGACCGGTTTTCCCGGTAATCCGTATTTGTC (site TGCCAGGCTGA)”, for which the “recombinant UMI read abundance (log10)” value worked out at 0.
The result for “TGCCATTCATGGACCGGTTTTCCCGGTAATCCGTATTTGAT (site TGCCATTCTAT)” reads 0.
The result for “TGCCCGGCATGGACCGGTTTTCCCGGTAATCCGTATTTGGC (site TGACCGGCTGC)” reads 0.0166; that for “TGCCCGGCATGGACCGGTTTTCCCGGTAATCCGTATTTGGC (site TGCCCGGCTGC)”, 0; that for “TGCCCGGCATGGACCGGTTTTCCCGGTAATCCGTATTTGGC (site TGGCCGGCTGC)”, 0.
The result for “TGCCCGGCATGGACCGGTTTTCCCGGTAATCCGTATTTGGC (site TGTCCGGCTGC)” reads 0; that for “TGCCGATCATGGACCGGTTTTCCCGGTAATCCGTATTTGCG (site TGCCGATCTCG)”, 0.225.
In the case of “TGCCGTACATGGACCGGTTTTCCCGGTAATCCGTATTTGCT (site AGCCGTACTAG)”, the “recombinant UMI read abundance (log10)” value came out at 0.792.
With “TGCCGTACATGGACCGGTTTTCCCGGTAATCCGTATTTGCT (site CGCCGTACTAG)” the figure was 0.514; with “TGCCGTACATGGACCGGTTTTCCCGGTAATCCGTATTTGCT (site GGCCGTACTAG)”, 0; with “TGCCGTACATGGACCGGTTTTCCCGGTAATCCGTATTTGCT (site TGCCGTACTAG)”, 1.25.
On to “TGCGACACATGGACCGGTTTTCCCGGTAATCCGTATTTGGT (site TGCGACACTAC)”, for which the “recombinant UMI read abundance (log10)” value was 0.00309.
With “TGCGAGGCATGGACCGGTTTTCCCGGTAATCCGTATTTGGA (site TGCGAGGCTTC)” the figure was 0.00911; with “TGCGTTACATGGACCGGTTTTCCCGGTAATCCGTATTTGTT (site TGCGTTACTAA)”, 0.237; with “TGCTAGGCATGGACCGGTTTTCCCGGTAATCCGTATTTGAT (site TGCTAGGCTAA)”, 0.0172.
With “TGCTAGGCATGGACCGGTTTTCCCGGTAATCCGTATTTGAT (site TGCTAGGCTAC)” the figure was 0.0154; with “TGCTAGGCATGGACCGGTTTTCCCGGTAATCCGTATTTGAT (site TGCTAGGCTAG)”, 0.
